Measured values reported in patent US20120077737A1, “HEPATITIS C INHIBITOR COMPOUNDS” (priority 2009, published 2012).

Key:
[1] = test system: HCV genotype 1a subgenomic replicon with NS3 resistance mutation R155K; test: HCV replicon RNA replication assay, R155K 1a; assay type: cell-based, HCV genotype 1a (strain H77), Huh-7 cells; conditions: Hepatitis C virus, Huh-7, 72 h, read-out: R155K 1a Ec50 (nM)
[2] = test system: HCV genotype 1b subgenomic replicon with NS3 resistance mutation D168V; test: HCV replicon RNA replication assay, D168V 1b; assay type: cell-based, HCV genotype 1b (Con-1), Huh-7 cells; conditions: Hepatitis C virus, Huh-7, 72 h, read-out: D168V 1b Ec50 (nM)
[3] = test system: HCV genotype 1a subgenomic replicon with NS3 resistance mutation D168V; test: HCV replicon RNA replication assay, D168V 1a; assay type: cell-based, HCV genotype 1a (strain H77), Huh-7 cells; conditions: Hepatitis C virus, Huh-7, 72 h, read-out: D168V 1a Ec50 (nM)
[4] = test system: HCVPV1a subgenomic replicon (wild type 1a); test: HCV replicon RNA replication assay, wild type 1a; assay type: cell-based, HCV genotype 1a (strain H77), Huh-7 cells; conditions: Hepatitis C virus; Table 1; luciferase replicon, Huh-7, 72 h; read-out: WT 1a Ec50
[5] = test system: HCVPV1b subgenomic replicon (wild type 1b); test: HCV replicon RNA replication assay, wild type 1b; assay type: cell-based, HCV genotype 1b (Con-1), Huh-7 cells; conditions: Hepatitis C virus; Table 1; luciferase replicon, Huh-7, 72 h; read-out: WT 1b Ec50

Compound	EC50 [1]	EC50 [2]	EC50 [3]	EC50 [4]	EC50 [5]
COc1ccc2c(O[C@@H]3C[C@H]4C(=O)N[C@]5(C(=O)NS(=O)(=O)C6(C)CC6)C[C@H]5/C=C\CCCCC[C@H](NC(=O)c5cnn(CC(F)F)n5)C(=O)N4C3)cc(OC(C)C)nc2c1C [Compound 1010, (2R,6S,12Z,13aS,14aR,16aS)-6-({[2-(2,2-difluoroethyl)-2H-1,2,3-triazol-4-yl]carbonyl}amino)-2-{[7-methoxy-8-methyl-2-(propan-2-yloxy)quinolin-4-yl]oxy}-N-[(1-methylcyclopropyl)sulfonyl]-5,16-dioxo-1,2,3,6,7,8,9,10,11,13a,14,15,16,16a-tetradecahydrocyclopropa[e]pyrrolo[1,2-a][1,4]diazacyclopentadecine-14a(5H)-carboxamide]	4.6 nM	0.26 nM	5.6 nM	0.3 nM	0.37 nM
COc1ccc2c(O[C@@H]3C[C@H]4C(=O)N[C@]5(C(=O)NS(=O)(=O)C6CC6)C[C@H]5/C=C\CCCCC[C@H](NC(=O)c5ccn(CC(F)F)n5)C(=O)N4C3)cc(OC(C)C)nc2c1C [Compound 1011, (2R,6S,12Z,13aS,14aR,16aS)-N-(cyclopropylsulfonyl)-6-({[1-(2,2-difluoroethyl)-1H-pyrazol-3-yl]carbonyl}amino)-2-{[7-methoxy-8-methyl-2-(propan-2-yloxy)quinolin-4-yl]oxy}-5,16-dioxo-1,2,3,6,7,8,9,10,11,13a,14,15,16,16a-tetradecahydrocyclopropa[e]pyrrolo[1,2-a][1,4]diazacyclopentadecine-14a(5H)-carboxamide]	3.9 nM	0.24 nM	6.4 nM	0.43 nM	0.35 nM
COc1c(F)ccc2c(O[C@@H]3C[C@H]4C(=O)N[C@]5(C(=O)NS(=O)(=O)C6(C)CC6)C[C@H]5/C=C\CCCCC[C@H](NC(=O)c5ccn(C)n5)C(=O)N4C3)cc(OC(C)C)nc12 [Compound 1013, (2R,6S,12Z,13aS,14aR,16aS)-2-{[7-fluoro-8-methoxy-2-(propan-2-yloxy)quinolin-4-yl]oxy}-N-[(1-methylcyclopropyl)sulfonyl]-6-{[(1-methyl-1H-pyrazol-3-yl)carbonyl]amino}-5,16-dioxo-1,2,3,6,7,8,9,10,11,13a,14,15,16,16a-tetradecahydrocyclopropa[e]pyrrolo[1,2-a][1,4]diazacyclopentadecine-14a(5H)-carboxamide]	1.6 nM	0.45 nM	0.75 nM	0.5 nM	0.37 nM
COc1ccc2c(O[C@@H]3C[C@H]4C(=O)N[C@]5(C(=O)NS(=O)(=O)C6CC6)C[C@H]5/C=C\CCCCC[C@H](NC(=O)c5ccc(C(C)(C)O)s5)C(=O)N4C3)cc(OC(C)C)nc2c1C [Compound 1014, (2R,6S,12Z,13aS,14aR,16aS)-N-(cyclopropylsulfonyl)-6-({[5-(2-hydroxypropan-2-yl)thiophen-2-yl]carbonyl}amino)-2-{[7-methoxy-8-methyl-2-(propan-2-yloxy)quinolin-4-yl]oxy}-5,16-dioxo-1,2,3,6,7,8,9,10,11,13a,14,15,16,16a-tetradecahydrocyclopropa[e]pyrrolo[1,2-a][1,4]diazacyclopentadecine-14a(5H)-carboxamide]	8.5 nM	0.82 nM	6.3 nM	1.2 nM	1.2 nM
Cc1c(O)ccc2c(O[C@@H]3C[C@H]4C(=O)N[C@]5(C(=O)NS(=O)(=O)C6(C)CC6)C[C@H]5/C=C\CCCCC[C@H](NC(=O)c5ccn(C)n5)C(=O)N4C3)cc(OC(C)C)nc12 [Compound 1015, (2R,6S,12Z,13aS,14aR,16aS)-2-{[7-hydroxy-8-methyl-2-(propan-2-yloxy)quinolin-4-yl]oxy}-N-[(1-methylcyclopropyl)sulfonyl]-6-{[(1-methyl-1H-pyrazol-3-yl)carbonyl]amino}-5,16-dioxo-1,2,3,6,7,8,9,10,11,13a,14,15,16,16a-tetradecahydrocyclopropa[e]pyrrolo[1,2-a][1,4]diazacyclopentadecine-14a(5H)-carboxamide]	0.95 nM	0.96 nM	6.9 nM	0.96 nM	1.3 nM
COc1c(F)ccc2c(O[C@@H]3C[C@H]4C(=O)N[C@]5(C(=O)NS(=O)(=O)C6CC6)C[C@H]5/C=C\CCCCC[C@H](NC(=O)c5ccn(C)n5)C(=O)N4C3)cc(OC(C)C)nc12 [Compound 1016, (2R,6S,12Z,13aS,14aR,16aS)-N-(cyclopropylsulfonyl)-2-{[7-fluoro-8-methoxy-2-(propan-2-yloxy)quinolin-4-yl]oxy}-6-{[(1-methyl-1H-pyrazol-3-yl)carbonyl]amino}-5,16-dioxo-1,2,3,6,7,8,9,10,11,13a,14,15,16,16a-tetradecahydrocyclopropa[e]pyrrolo[1,2-a][1,4]diazacyclopentadecine-14a(5H)-carboxamide]	7.9 nM	1 nM	3.9 nM	1.5 nM	1.1 nM
COc1ccc2c(O[C@@H]3C[C@H]4C(=O)N[C@]5(C(=O)NS(=O)(=O)C6(C)CC6)C[C@H]5/C=C\CCCCC[C@H](NC(=O)c5ccn(CC(=O)N(C)C)n5)C(=O)N4C3)cc(OC(C)C)nc2c1C [Compound 1017, (2R,6S,12Z,13aS,14aR,16aS)-6-[({1-[2-(dimethylamino)-2-oxoethyl]-1H-pyrazol-3-yl}carbonyl)amino]-2-{[7-methoxy-8-methyl-2-(propan-2-yloxy)quinolin-4-yl]oxy}-N-[(1-methylcyclopropyl)sulfonyl]-5,16-dioxo-1,2,3,6,7,8,9,10,11,13a,14,15,16,16a-tetradecahydrocyclopropa[e]pyrrolo[1,2-a][1,4]diazacyclopentadecine-14a(5H)-carboxamide]	1.2 nM	1.5 nM	2.7 nM	1.1 nM	1.1 nM
CNC(=O)Cn1ccc(C(=O)N[C@H]2CCCCC/C=C\[C@@H]3C[C@@]3(C(=O)NS(=O)(=O)C3CC3)NC(=O)[C@@H]3C[C@@H](Oc4cc(OC(C)C)nc5c(C)c(OC)ccc45)CN3C2=O)n1 [Compound 1018, (2R,6S,12Z,13aS,14aR,16aS)-N-(cyclopropylsulfonyl)-2-{[7-methoxy-8-methyl-2-(propan-2-yloxy)quinolin-4-yl]oxy}-6-[({1-[2-(methylamino)-2-oxoethyl]-1H-pyrazol-3-yl}carbonyl)amino]-5,16-dioxo-1,2,3,6,7,8,9,10,11,13a,14,15,16,16a-tetradecahydrocyclopropa[e]pyrrolo[1,2-a][1,4]diazacyclopentadecine-14a(5H)-carboxamide]	4.2 nM	2.4 nM	9.8 nM	2.7 nM	3.3 nM
CNC(=O)Cn1ccc(C(=O)N[C@H]2CCCCC/C=C\[C@@H]3C[C@@]3(C(=O)NS(=O)(=O)C3(C)CC3)NC(=O)[C@@H]3C[C@@H](Oc4cc(OC(C)C)nc5c(C)c(OC)ccc45)CN3C2=O)n1 [Compound 1019, (2R,6S,12Z,13aS,14aR,16aS)-2-{[7-methoxy-8-methyl-2-(propan-2-yloxy)quinolin-4-yl]oxy}-6-[({1-[2-(methylamino)-2-oxoethyl]-1H-pyrazol-3-yl}carbonyl)amino]-N-[(1-methylcyclopropyl)sulfonyl]-5,16-dioxo-1,2,3,6,7,8,9,10,11,13a,14,15,16,16a-tetradecahydrocyclopropa[e]pyrrolo[1,2-a][1,4]diazacyclopentadecine-14a(5H)-carboxamide]	1.6 nM	1.8 nM	5.4 nM	2 nM	1.5 nM
COc1ccc2c(O[C@@H]3C[C@H]4C(=O)N[C@]5(C(=O)NS(=O)(=O)C6(C)CC6)C[C@H]5/C=C\CCCCC[C@H](NC(=O)c5ccc(C(C)(C)O)s5)C(=O)N4C3)cc(OC(C)C)nc2c1C [Compound 1020, (2R,6S,12Z,13aS,14aR,16aS)-6-({[5-(2-hydroxypropan-2-yl)thiophen-2-yl]carbonyl}amino)-2-{[7-methoxy-8-methyl-2-(propan-2-yloxy)quinolin-4-yl]oxy}-N-[(1-methylcyclopropyl)sulfonyl]-5,16-dioxo-1,2,3,6,7,8,9,10,11,13a,14,15,16,16a-tetradecahydrocyclopropa[e]pyrrolo[1,2-a][1,4]diazacyclopentadecine-14a(5H)-carboxamide]	2.4 nM	0.39 nM	3.7 nM	0.86 nM	0.66 nM
COc1c(F)ccc2c(O[C@@H]3C[C@H]4C(=O)N[C@]5(C(=O)NS(=O)(=O)C6(C)CC6)C[C@H]5/C=C\CCCCC[C@H](NC(=O)c5ccn(CCF)n5)C(=O)N4C3)cc(OC(C)C)nc12 [Compound 1021, (2R,6S,12Z,13aS,14aR,16aS)-6-({[1-(2-fluoroethyl)-1H-pyrazol-3-yl]carbonyl}amino)-2-{[7-fluoro-8-methoxy-2-(propan-2-yloxy)quinolin-4-yl]oxy}-N-[(1-methylcyclopropyl)sulfonyl]-5,16-dioxo-1,2,3,6,7,8,9,10,11,13a,14,15,16,16a-tetradecahydrocyclopropa[e]pyrrolo[1,2-a][1,4]diazacyclopentadecine-14a(5H)-carboxamide]	1.9 nM	0.53 nM	0.93 nM	0.34 nM	0.48 nM
